Experimental data taken from patent US20140107051A1, “ISOFLAVONES FOR TREATING MUCOPOLYSACCHARIDOSES” (INSTYTUT FARMACEUTYCZNY, priority 2005, published 2014).
Where two headings read alike, the source gives them in different places.

Assays:
[1] = test system: cultured human skin fibroblasts derived from normal individuals; experiment: 35S-sulphate incorporation test of glycosaminoglycans synthesis, normal cells; assay type: cell-based; details: 30 μM; for activity at 30 µM: Homo sapiens, Skin fibroblast, read-out: Relative GAG synthesis (converted to 1 cell), Normal cells; for activity at 30 µM / Relative GAG synthesis (converted to 1 cell), Normal cells: DMSO control = 1
Experimental: (§1) The activity of isoflavones was evaluated by the measure of glycosaminoglycans synthesis in 35S-sulphate incorporation test comprising incubation of the radiolabelled 35S-sulfate into GAGs in cultured human skin fibroblasts derived from normal individuals (control) and patients affected with mucopolysaccharidose (Murata et al., Arch Biochem Biophys 2003; 413: 229-235).
(§2) The negative control was DMSO (diluent for genistein and all derivatives), the positive control—genistein. […] Experiment with each cell line has been repeated twice, and every measurement has been done twice.

[2] = Proliferation 144 h (Table 4); assay type: cell-based; details: read-out: Proliferation 144 h IC50
[3] = test system: cultured human skin fibroblasts derived from patients affected with mucopolysaccharidose; experiment: 35S-sulphate incorporation test of glycosaminoglycans synthesis, different human cell lines / MPS types; assay type: cell-based; details: 30 μM; both cell lines of Table 2
Experimental: as §1, §2

[4] = test system: fibroblasts of patients affected with MPS I; experiment: 35S-sulphate incorporation test of glycosaminoglycans synthesis, MPS I cells; assay type: cell-based, human; details: 30 μM; for activity at 30 µM: Homo sapiens, Fibroblast, read-out: Relative GAG synthesis (converted to 1 cell), MPS I; for activity at 30 µM / Relative GAG synthesis (converted to 1 cell), MPS I: DMSO control = 1
Experimental: as §1, §2

MPS IIIB fibroblasts = experiment: Number of lysosomal structures by electron microscopy, MPS IIIB; assay type: cell-based, human; details: 30 μM
MPS IIIA fibroblasts = experiment: Number of lysosomal structures by electron microscopy, MPS IIIA; assay type: cell-based, human; details: 30 μM
[5] = test system: glycosaminoglycan (GAG) synthesis; experiment: GAG synthesis, 35S incorp. (Table 4); assay type: cell-based
[6] = read-out: Cytotoxicity 24 h LC50, 24 h
[7] = read-out: Cytotoxicity 48 h LC50, 48 h

Row | SMILES | Inhibition in relation to genistein, first symbol (normal cells) [1] | activity at 30 µM [1] [%] | IC50 [2] [µM] | CC50 at 24 h (in vitro) [µM] | CC50 at 48 h (in vitro) [µM] | influence on GAG synthesis compared with genistein (in words) [3] | activity at 30 µM [4] [%] | Number of structures per 100 μm^2 of cellular cross section ± SD, amorphous (MPS IIIB fibroblasts) [per 100 μm^2] | Number of structures per 100 μm^2 of cellular cross section ± SD, complexed (MPS IIIB fibroblasts) [per 100 μm^2] | Number of structures per 100 μm^2 of cellular cross section ± SD, lamellar (MPS IIIB fibroblasts) [per 100 μm^2] | Number of structures per 100 μm^2 of cellular cross section ± SD, total number (MPS IIIB fibroblasts) [per 100 μm^2] | Number of structures per 100 μm^2 of cellular cross section ± SD, amorphous (MPS IIIA fibroblasts) [per 100 μm^2] | Number of structures per 100 μm^2 of cellular cross section ± SD, complexed (MPS IIIA fibroblasts) [per 100 μm^2] | Number of structures per 100 μm^2 of cellular cross section ± SD, lamellar (MPS IIIA fibroblasts) [per 100 μm^2] | Number of structures per 100 μm^2 of cellular cross section ± SD, total number (MPS IIIA fibroblasts) [per 100 μm^2] | CC50 [6] [µM] | further results
1 | CCCCCCCCCCCCCCCC(=O)Oc1cc(O)c2c(=O)c(-c3ccc(O)cc3)coc2c1 [IFG-018] | 0/0 | 37 | 24.9 | 41.7 | 23.8 | stronger influence on GAG synthesis than genistein | 51 |  |  |  |  |  |  |  |  |  | 
2 | CC(=O)Oc1ccc(-c2coc3cc(OC(C)=O)cc(OC(C)=O)c3c2=O)cc1 [IFG-032] | 0 | 25 | 17.4 | > 30 | > 30 | an activity comparable with genistein, but only for one cell line | 68 | 0.12 ± 0.08 | 0.10 ± 0.07 | 0.17 ± 0.11 | 0.40 ± 0.20 | 0.17 ± 0.16 | 0.22 ± 0.11 | 0.14 ± 0.08 | 0.53 ± 0.19 |  | 
3 | O=C(Oc1cc(O)c2c(=O)c(-c3ccc(O)cc3)coc2c1)c1ccccc1O [IFG-034] |  | 40 | 22.9 | > 30 | > 30 |  | 93 | 0.15 ± 0.08 | 0.06 ± 0.05 | 0.20 ± 0.16 | 0.41 ± 0.16 | 0.17 ± 0.09 | 0.27 ± 0.14 | 0.17 ± 0.09 | 0.61 ± 0.20 |  | 
4 | CCC(=O)OCOc1cc(O)c2c(=O)c(-c3ccc(O)cc3)coc2c1 [IFG-036] | 0/0 |  | 11.2 |  |  | an activity comparable with genistein |  | 0.15 ± 0.18 | 0.12 ± 0.11 | 0.25 ± 0.21 | 0.50 ± 0.34 | 0.22 ± 0.11 | 0.28 ± 0.16 | 0.19 ± 0.14 | 0.73 ± 0.31 | > 30 | GAG synthesis 35S incorp. [5]: 64 ± 21%; Relative GAG synthesis (converted to 1 cell), Normal cells [1]: 0.27; CC50 [7]: > 30 µM; Inhibition in relation to genistein, second symbol (MPS I) [4]: 0/0; Relative GAG synthesis (converted to 1 cell), MPS I [4]: 0.49
5 | Cc1ccc(S(=O)(=O)OCCOCCOCCOc2cc(O)c3c(=O)c(-c4ccc(O)cc4)coc3c2)cc1 [IFG-046] | − |  |  |  |  |  |  |  |  |  |  |  |  |  |  | 20.7 | GAG synthesis 35S incorp. [5]: 118 ± 72%; Relative GAG synthesis (converted to 1 cell), Normal cells [1]: 1.80; Inhibition in relation to genistein, second symbol (MPS I) [4]: 0; Relative GAG synthesis (converted to 1 cell), MPS I [4]: 0.49
6 | C=CCOc1cc(O)c2c(=O)c(-c3ccc(OC(=O)c4ccccc4OC(C)=O)cc3)coc2c1 [IFG-052] |  | 75 | 12.2 | 15.8 | 21.5 | an activity comparable with genistein, but only for one cell line | 85 |  |  |  |  |  |  |  |  |  | 
7 | CC(C)(C#N)c1cc(COc2ccc(-c3coc4cc(OCc5ccccc5)cc(O)c4c3=O)cc2)cc(C(C)(C)C#N)c1 [IFG-053] | 0/0 | 30 | 53 | > 30 | > 30 | an activity comparable with genistein | 52 |  |  |  |  |  |  |  |  |  | 
8 | O=C([O-])CCCC(=O)Oc1ccc(-c2coc3cc(OCc4ccccc4)cc(O)c3c2=O)cc1.[Na+] [IFG-061] | 0/0 |  |  |  |  |  |  |  |  |  |  |  |  |  |  | 18.8 | Relative GAG synthesis (converted to 1 cell), Normal cells [1]: 0.28; Relative GAG synthesis (converted to 1 cell), MPS I [4]: 0.46
9 | CC(C)Oc1ccc(-c2coc3cc(O)cc(O)c3c2=O)cc1 [IFG-066] | 0/0 | 23 | 14.6 | > 30 | > 30 |  | 44 | 0.08 ± 0.06 | 0.11 ± 0.14 | 0.15 ± 0.10 | 0.34 ± 0.23 | 0.18 ± 0.19 | 0.16 ± 0.08 | 0.13 ± 0.10 | 0.48 ± 0.17 |  | 
10 | O=c1c(-c2ccc(O)cc2)coc2cc(OCCCO)cc(O)c12 [IFG-072, 5-hydroxy-3-(4-hydroxyphenyl)-7-(3-hydroxypropoxy)-chromen-4-one] |  |  | 14.1 | > 30 | 32.5 |  |  | 0.14 ± 0.10 | 0.16 ± 0.08 | 0.11 ± 0.12 | 0.41 ± 0.20 | 0.34 ± 0.17 | 0.28 ± 0.10 | 0.20 ± 0.10 | 0.82 ± 0.23 |  | 
11 | CCCC[N+](CCCC)(CCCC)CCCC.O=C([O-])COc1cc(O)c2c(=O)c(-c3ccc(O)cc3)coc2c1 [IFG-074, tetrabutylammonium[5-hydroxy-3-(4-hydroxy-phenyl)-4-oxo-4H-chromen-7-yloxy]acetate] |  |  | 27.3 |  |  |  |  |  |  |  |  |  |  |  |  | 44.1 | GAG synthesis 35S incorp. [5]: 88 ± 39%; CC50 [7]: 32.8 µM
